According to ChEMBL document CHEMBL1287714, “5-amino-pyrazoles as potent and selective p38α inhibitors” (Bioorg Med Chem Lett, 2010):
In brackets after ≈: the same amount, converted by molar mass.

How the values were obtained:
PBMC = experiment: Antiinflammatory activity in human PBMC assessed as inhibition of LPS-induced TNFalpha production; assay type: functional, cell-based
[1] = biological target: Mitogen-activated protein kinase 14 (Homo sapiens, UniProt Q16539); experiment: Inhibition of human recombinant p38alpha
[2] = biological target: Insulin-like growth factor 1 receptor (Homo sapiens, UniProt P08069); experiment: Inhibition of IGF-1R
[3] = biological target: Protein kinase C alpha type (Homo sapiens, UniProt P17252); experiment: Inhibition of PKCalpha
[4] = biological target: MAP kinase-activated protein kinase 2 (Homo sapiens, UniProt P49137); experiment: Inhibition of MK2
Cytochrome P450 2C9 = Cytochrome P450 2C9 (Homo sapiens, UniProt P11712); experiment: Inhibition of CYP2C9; assay type: ADME
[5] = biological target: Voltage-gated inwardly rectifying potassium channel KCNH2 (Homo sapiens, UniProt Q12809); experiment: Inhibition of human ERG by flux assay
[6] = biological target: Serine/threonine-protein kinase PLK1 (Homo sapiens, UniProt P53350); experiment: Inhibition of PLK1
[7] = Inhibition of VEGF receptor
[8] = Apparent permeability across human Caco-2 cells; assay type: ADME, cell-based; conditions: read-out: permeability
[9] = biological target: Tyrosine-protein kinase JAK3 (Homo sapiens, UniProt P52333); experiment: Inhibition of Jak3
[10] = biological target: Non-receptor tyrosine-protein kinase TYK2 (Homo sapiens, UniProt P29597); experiment: Inhibition of Tyk2
Cytochrome P450 2D6 = Cytochrome P450 2D6 (Homo sapiens, UniProt P10635); experiment: Inhibition of CYP2D6; assay type: ADME
[11] = Metabolic rate in human liver microsomes at 3 uM after 10 mins
[12] = biological target: Diacylglycerol O-acyltransferase 1 (Homo sapiens, UniProt O75907); experiment: Inhibition of DGAT
[13] = Inhibition of Lckzeta
[14] = biological target: Vascular endothelial growth factor receptor 2 (Homo sapiens, UniProt P35968); experiment: Inhibition of KDR
Cytochrome P450 1A2 = Cytochrome P450 1A2 (Homo sapiens, UniProt P05177); experiment: Inhibition of CYP1A2; assay type: ADME
[15] = biological target: Tyrosine-protein kinase BTK (Homo sapiens, UniProt Q06187); experiment: Inhibition of Btk
[16] = Metabolic rate in mouse liver microsomes at 3 uM after 10 mins
[17] = Inhibition of GSK3
[18] = biological target: Signal transducer and activator of transcription 3 (Homo sapiens, UniProt P40763); experiment: Inhibition of STAT3
[19] = biological target: Fibroblast growth factor receptor 1 (Homo sapiens, UniProt P11362); experiment: Inhibition of FGFR1
[20] = biological target: Protein kinase C delta type (Homo sapiens, UniProt Q05655); experiment: Inhibition of PKCdelta
Cytochrome P450 3A4 = Cytochrome P450 3A4 (Homo sapiens, UniProt P08684); experiment: Inhibition of CYP3A4; assay type: ADME
Mus musculus = experiment: Antiinflammatory activity in mouse plasma assessed as inhibition of LPS-induced TNFalpha production at 5 mg/kg, po administered 24 hrs before LPS challenge measured after 90 mins; assay type: functional
[21] = Inhibition of PDGF receptor
[22] = biological target: Tyrosine-protein kinase ITK/TSK (Homo sapiens, UniProt Q08881); experiment: Inhibition of Itk
[23] = Metabolic rate in rat liver microsomes at 3 uM after 10 mins
[24] = biological target: Protein kinase C zeta type (Homo sapiens, UniProt Q05513); experiment: Inhibition of PKCzeta
Cytochrome P450 2C19 = Cytochrome P450 2C19 (Homo sapiens, UniProt P33261); experiment: Inhibition of CYP2C19; assay type: ADME
[25] = Inhibition of CaMK2
[26] = Aqueous solubility of the compound at pH 6.5; assay type: physicochemical
[27] = Inhibition of PKCtau

Mitogen-activated protein kinase 14, sequence (Q16539 whole entry): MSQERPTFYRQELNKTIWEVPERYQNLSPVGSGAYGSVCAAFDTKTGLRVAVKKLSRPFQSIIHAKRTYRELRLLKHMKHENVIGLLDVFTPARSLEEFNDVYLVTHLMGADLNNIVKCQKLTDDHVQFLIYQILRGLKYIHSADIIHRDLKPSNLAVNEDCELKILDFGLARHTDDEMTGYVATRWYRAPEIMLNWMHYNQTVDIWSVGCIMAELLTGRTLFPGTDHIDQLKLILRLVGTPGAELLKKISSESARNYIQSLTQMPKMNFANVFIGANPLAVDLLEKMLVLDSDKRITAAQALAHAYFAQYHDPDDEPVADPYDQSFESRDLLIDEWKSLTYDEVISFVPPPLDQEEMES
Cytochrome P450 1A2, sequence (P05177 whole entry): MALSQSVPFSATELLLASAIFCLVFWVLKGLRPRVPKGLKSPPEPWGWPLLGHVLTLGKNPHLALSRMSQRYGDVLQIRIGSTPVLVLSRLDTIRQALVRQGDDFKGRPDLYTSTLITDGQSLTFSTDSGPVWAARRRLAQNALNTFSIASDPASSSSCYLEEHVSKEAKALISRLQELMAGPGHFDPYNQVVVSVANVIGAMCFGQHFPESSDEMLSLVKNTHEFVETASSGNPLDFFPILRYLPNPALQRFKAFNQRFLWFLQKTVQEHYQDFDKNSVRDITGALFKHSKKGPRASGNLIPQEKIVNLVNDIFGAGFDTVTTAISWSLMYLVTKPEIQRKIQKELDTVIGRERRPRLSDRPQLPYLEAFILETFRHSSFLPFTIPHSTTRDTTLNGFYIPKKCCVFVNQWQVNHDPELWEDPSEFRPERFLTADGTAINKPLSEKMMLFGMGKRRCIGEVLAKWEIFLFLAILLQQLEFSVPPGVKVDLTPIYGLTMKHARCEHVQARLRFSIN
MAP kinase-activated protein kinase 2, sequence (P49137 whole entry): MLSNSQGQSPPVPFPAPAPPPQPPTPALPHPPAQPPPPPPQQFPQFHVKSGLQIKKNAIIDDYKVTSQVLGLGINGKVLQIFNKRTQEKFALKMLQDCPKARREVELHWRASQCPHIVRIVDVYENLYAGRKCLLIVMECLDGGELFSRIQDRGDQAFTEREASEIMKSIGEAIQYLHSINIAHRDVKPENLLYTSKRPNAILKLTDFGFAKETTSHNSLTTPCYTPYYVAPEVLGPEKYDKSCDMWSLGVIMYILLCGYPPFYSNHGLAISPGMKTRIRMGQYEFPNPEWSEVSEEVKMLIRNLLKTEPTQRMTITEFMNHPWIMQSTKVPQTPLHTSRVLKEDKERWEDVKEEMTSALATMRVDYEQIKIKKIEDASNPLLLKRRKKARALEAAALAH
Cytochrome P450 3A4, sequence (P08684 whole entry): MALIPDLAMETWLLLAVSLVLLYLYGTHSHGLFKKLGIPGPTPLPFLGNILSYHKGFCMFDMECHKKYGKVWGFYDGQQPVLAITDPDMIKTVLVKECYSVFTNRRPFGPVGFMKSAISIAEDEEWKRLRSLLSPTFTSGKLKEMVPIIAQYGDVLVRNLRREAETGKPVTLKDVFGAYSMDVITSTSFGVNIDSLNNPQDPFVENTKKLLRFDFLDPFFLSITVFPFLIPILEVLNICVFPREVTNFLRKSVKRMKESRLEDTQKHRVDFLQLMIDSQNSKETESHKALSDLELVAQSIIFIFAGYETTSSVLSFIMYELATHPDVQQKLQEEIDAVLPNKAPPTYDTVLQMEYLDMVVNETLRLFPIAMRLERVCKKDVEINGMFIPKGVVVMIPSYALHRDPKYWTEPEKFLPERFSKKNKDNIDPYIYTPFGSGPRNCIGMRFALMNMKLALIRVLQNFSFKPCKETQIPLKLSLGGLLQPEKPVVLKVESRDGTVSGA
Vascular endothelial growth factor receptor 2, sequence (P35968 whole entry): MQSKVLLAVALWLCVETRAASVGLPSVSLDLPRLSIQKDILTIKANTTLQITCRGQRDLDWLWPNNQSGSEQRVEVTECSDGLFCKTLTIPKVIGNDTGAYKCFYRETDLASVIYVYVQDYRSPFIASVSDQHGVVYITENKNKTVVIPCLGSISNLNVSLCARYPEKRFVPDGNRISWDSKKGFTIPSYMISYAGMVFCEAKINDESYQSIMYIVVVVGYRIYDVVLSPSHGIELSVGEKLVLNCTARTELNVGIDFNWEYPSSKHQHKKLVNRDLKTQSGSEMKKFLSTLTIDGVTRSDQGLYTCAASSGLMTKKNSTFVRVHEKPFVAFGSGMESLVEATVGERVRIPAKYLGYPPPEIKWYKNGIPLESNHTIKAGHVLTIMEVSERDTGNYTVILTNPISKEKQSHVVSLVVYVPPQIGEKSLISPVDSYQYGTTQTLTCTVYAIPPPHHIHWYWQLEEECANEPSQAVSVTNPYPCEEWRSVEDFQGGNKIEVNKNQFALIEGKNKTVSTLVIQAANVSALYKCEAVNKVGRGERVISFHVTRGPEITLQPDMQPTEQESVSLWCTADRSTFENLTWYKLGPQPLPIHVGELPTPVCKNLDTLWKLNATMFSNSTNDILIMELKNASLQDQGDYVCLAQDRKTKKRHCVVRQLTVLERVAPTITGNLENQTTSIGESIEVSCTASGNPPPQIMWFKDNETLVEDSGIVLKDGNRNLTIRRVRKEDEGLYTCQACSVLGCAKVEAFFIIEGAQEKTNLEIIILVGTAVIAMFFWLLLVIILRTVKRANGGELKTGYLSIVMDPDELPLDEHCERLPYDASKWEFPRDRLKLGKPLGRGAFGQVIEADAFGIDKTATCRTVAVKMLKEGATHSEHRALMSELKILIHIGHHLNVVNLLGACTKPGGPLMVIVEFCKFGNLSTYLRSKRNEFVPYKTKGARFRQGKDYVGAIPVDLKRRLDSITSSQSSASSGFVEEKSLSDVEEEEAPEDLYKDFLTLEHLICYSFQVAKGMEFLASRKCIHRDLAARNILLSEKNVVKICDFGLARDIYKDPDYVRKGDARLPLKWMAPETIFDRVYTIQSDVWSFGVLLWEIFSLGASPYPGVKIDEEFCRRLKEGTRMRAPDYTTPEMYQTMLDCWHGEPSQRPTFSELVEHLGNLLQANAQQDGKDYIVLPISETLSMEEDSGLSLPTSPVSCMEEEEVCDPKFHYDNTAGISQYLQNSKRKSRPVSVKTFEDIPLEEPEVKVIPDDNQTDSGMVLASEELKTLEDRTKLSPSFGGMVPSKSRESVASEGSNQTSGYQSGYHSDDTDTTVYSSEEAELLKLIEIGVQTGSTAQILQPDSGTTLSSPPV
Serine/threonine-protein kinase PLK1, sequence (P53350 whole entry): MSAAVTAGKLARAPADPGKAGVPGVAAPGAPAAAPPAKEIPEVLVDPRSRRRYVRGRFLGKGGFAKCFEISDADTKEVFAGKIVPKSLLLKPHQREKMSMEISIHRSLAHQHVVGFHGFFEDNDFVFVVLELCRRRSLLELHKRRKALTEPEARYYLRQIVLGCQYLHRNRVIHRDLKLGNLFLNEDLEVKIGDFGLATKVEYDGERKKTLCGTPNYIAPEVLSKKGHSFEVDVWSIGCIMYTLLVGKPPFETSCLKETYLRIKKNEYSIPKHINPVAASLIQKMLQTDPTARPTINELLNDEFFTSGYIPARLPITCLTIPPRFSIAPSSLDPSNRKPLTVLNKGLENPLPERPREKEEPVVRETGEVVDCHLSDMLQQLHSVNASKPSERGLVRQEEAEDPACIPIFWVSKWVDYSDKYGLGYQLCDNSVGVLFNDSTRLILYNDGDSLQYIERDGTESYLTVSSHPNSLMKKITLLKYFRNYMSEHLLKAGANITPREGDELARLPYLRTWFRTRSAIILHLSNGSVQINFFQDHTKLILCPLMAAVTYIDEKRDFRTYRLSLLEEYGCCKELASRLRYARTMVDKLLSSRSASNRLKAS
Cytochrome P450 2C9, sequence (P11712 whole entry): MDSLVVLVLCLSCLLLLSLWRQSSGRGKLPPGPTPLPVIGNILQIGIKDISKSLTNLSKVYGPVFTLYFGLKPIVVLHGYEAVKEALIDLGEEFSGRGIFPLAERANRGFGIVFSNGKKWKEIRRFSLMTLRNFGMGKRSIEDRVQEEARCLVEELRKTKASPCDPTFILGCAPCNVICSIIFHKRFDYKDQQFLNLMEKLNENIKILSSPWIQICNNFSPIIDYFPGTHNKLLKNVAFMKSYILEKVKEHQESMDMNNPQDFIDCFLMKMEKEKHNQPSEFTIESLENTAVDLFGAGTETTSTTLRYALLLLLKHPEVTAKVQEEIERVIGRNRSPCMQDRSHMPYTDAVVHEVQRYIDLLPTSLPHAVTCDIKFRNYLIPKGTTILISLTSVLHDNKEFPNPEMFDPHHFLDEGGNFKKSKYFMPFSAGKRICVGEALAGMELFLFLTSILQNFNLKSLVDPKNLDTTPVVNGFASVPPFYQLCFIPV

For `Cc1ccc(C(=O)Nc2ccon2)cc1NC(=O)c1cnn(-c2ccccc2)c1N`, the IC50 (PBMC) was 1 nM.
With `CCCCn1ncc(C(=O)Nc2cc(C(=O)Nc3ccnn3C)ccc2C)c1N` the IC50 [1] was 7 nM and the IC50 (PBMC) was 17 nM.
Work on `CCn1nccc1NC(=O)c1ccc(C)c(NC(=O)c2cnn(-c3ccc(F)cc3)c2N)c1` yielded an IC50 [1] of 2 nM and an IC50 (PBMC) of 2 nM.
Work on `Cc1ccc(C(=O)Nc2ccon2)cc1NC(=O)c1cnn(-c2ccc(F)cc2)c1N` yielded an IC50 [1] of 2 nM and an IC50 (PBMC) of 2 nM.
For `CCCCn1ncc(C(=O)Nc2cc(C(=O)Nc3ccon3)ccc2C)c1N`, the IC50 [1] was 2 nM and the IC50 (PBMC) was 2 nM.
`CNc1c(C(=O)Nc2cc(C(=O)Nc3ccon3)ccc2C)cnn1-c1ccccc1` gave an IC50 [1] of 5 nM and an IC50 (PBMC) of 7 nM.
With `CCNC(=O)c1ccc(C)c(NC(=O)c2cnn(-c3ccccc3)c2NCC)c1` the IC50 [1] was 6 nM and the IC50 (PBMC) was 15 nM.
Work on `CCNc1c(C(=O)Nc2cc(C(=O)Nc3ccon3)ccc2C)cnn1-c1ccccn1` yielded an IC50 [1] of 4 nM and an IC50 (PBMC) of 30 nM.
`CCNc1c(C(=O)Nc2cc(C(=O)Nc3ccon3)ccc2C)cnn1-c1ccccc1C` showed an IC50 [1] of 5 nM and an IC50 (PBMC) of 1 nM.
`CNC(=O)c1ccc(C)c(NC(=O)c2cnn(-c3ccccc3)c2N)c1` gave an IC50 [1] of 14 nM and an IC50 (PBMC) of 48 nM.
In the case of `CCNC(=O)c1ccc(C)c(NC(=O)c2cnn(-c3ccccc3)c2N)c1`, the IC50 [1] is reported as 8 nM and the IC50 (PBMC) is reported as 16 nM.
For `Cc1ccc(C(=O)NC2CC2)cc1NC(=O)c1cnn(-c2ccccc2)c1N`, the IC50 [1] was 7 nM and the IC50 (PBMC) was 26 nM.
`Cc1ccc(C(=O)Nc2ccnn2C)cc1NC(=O)c1cnn(-c2ccccc2)c1N` gave an IC50 [1] of 7 nM and an IC50 (PBMC) of 5 nM.
For `CCn1nccc1NC(=O)c1ccc(C)c(NC(=O)c2cnn(-c3ccccc3)c2N)c1`, the IC50 [1] was 5 nM and the IC50 (PBMC) was 8 nM.
`Cc1ccc(C(=O)Nc2ccon2)cc1NC(=O)c1cnn(-c2ccccn2)c1N` showed an IC50 [1] of 2 nM and an IC50 (PBMC) of 8 nM.
With `CCn1nccc1NC(=O)c1ccc(C)c(NC(=O)c2cnn(-c3ccccc3F)c2N)c1` the IC50 [1] was 3 nM and the IC50 (PBMC) was 5 nM.
In the case of `Cc1ccc(C(=O)Nc2ccnn2C)cc1NC(=O)c1cnn(-c2ccccc2F)c1N`, the IC50 [1] is reported as 4 nM and the IC50 (PBMC) is reported as 2 nM.
In the case of `Cc1ccc(C(=O)Nc2ccon2)cc1NC(=O)c1cnn(-c2ccccc2F)c1N`, the IC50 [2] is reported as > 50000 nM, the IC50 [3] is reported as > 40000 nM and the IC50 [4] is reported as > 30000 nM. For the same compound, the IC50 (Cytochrome P450 2C9) was 23000 nM, the IC50 [1] was 2 nM and the IC50 [5] was > 160000 nM. For the same compound, the IC50 [6] was > 15000 nM, the IC50 [7] was > 50000 nM and the Papp [8] was 23.1 ×10⁻⁶ cm/s. For the same compound, the IC50 [9] was > 10000 nM, the IC50 [10] was > 5000 nM and the IC50 (Cytochrome P450 2D6) was > 40000 nM. For the same compound, the metabolic rate at 10 min, 3 µM [11] was 0.001 nmol/min/mg, the IC50 [12] was > 20000 nM and the IC50 [13] was > 50000 nM. For the same compound, the IC50 [14] was > 50000 nM, the IC50 (Cytochrome P450 1A2) was > 40000 nM and the IC50 [15] was > 15000 nM. For the same compound, the metabolic rate at 10 min, 3 µM [16] was 0 nmol/min/mg, the IC50 [17] was > 5000 nM and the IC50 [18] was > 10000 nM. For the same compound, the IC50 [19] was > 50000 nM, the IC50 [20] was > 40000 nM and the IC50 (Cytochrome P450 3A4) was > 40000 nM. For the same compound, the inhibition in vivo at 5 mg/kg (Mus musculus) was > 75%, the IC50 [21] was 9200 nM and the IC50 [22] was > 50000 nM. The metabolic rate at 10 min, 3 µM [23] was 0 nmol/min/mg, the IC50 [24] was > 20000 nM and the IC50 (Cytochrome P450 2C19) was > 13000 nM. The IC50 [25] was > 50000 nM, the solubility [26] was 33 µg/mL (≈ 78.5 µM) and the IC50 (PBMC) was 1 nM. For the same compound, the IC50 [27] was > 13000 nM.
